Key:
Carbonic anhydrase 9 = Carbonic anhydrase 9 (Homo sapiens, UniProt Q16790)
Carbonic anhydrase 1 = Carbonic anhydrase 1 (Homo sapiens, UniProt P00915)
Sequence of Carbonic anhydrase 1 (P00915 whole entry): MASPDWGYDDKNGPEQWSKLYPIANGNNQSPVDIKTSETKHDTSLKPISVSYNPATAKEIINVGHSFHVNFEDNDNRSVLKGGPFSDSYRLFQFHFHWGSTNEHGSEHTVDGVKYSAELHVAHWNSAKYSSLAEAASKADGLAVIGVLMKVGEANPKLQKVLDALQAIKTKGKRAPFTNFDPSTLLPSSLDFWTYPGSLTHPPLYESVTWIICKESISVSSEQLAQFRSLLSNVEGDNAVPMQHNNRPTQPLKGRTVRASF

Row | Compound | Ki (Carbonic anhydrase 9) | Ki (Carbonic anhydrase 1)
1 | NS(=O)(=O)OCCCCCCCOS(N)(=O)=O | 10.1 nM | 
2 | C[C@]12CC[C@@H]3c4ccc(OS(N)(=O)=O)cc4CC[C@H]3[C@@H]1CC[C@@H]2OS(N)(=O)=O |  | 6000 nM
3 | NS(=O)(=O)OCc1ccc(COS(N)(=O)=O)cc1 | 61.6 nM | > 20 nM

Reference: ChEMBL document CHEMBL1144271, “Carbonic anhydrase inhibitors: synthesis and inhibition of cytosolic/tumor-associated carbonic anhydrase isozymes I, II, and IX with bis-sulfamates” (Bioorg Med Chem Lett, 2005)
